From PubChem BioAssay (NCI)
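1) Cells in 96-well plates. 2) Compound, 48 h, 5 concentrations. 3) Linear interpolation between surrounding doses. 4) Unreached endpoint = highest concentration. GI50 is the concentration that inhibits growth by half. TGI is the concentration that stops growth completely.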

How the values were obtained:
Assay in all cases: inhibition of tumour cell growth, NCI panel, 48 h
MOLT-4 leukemia = tested on: MOLT-4 leukemia
MCF7 breast = tested on: MCF7 breast
BT-549 breast = tested on: BT-549 breast
ACHN renal = tested on: ACHN renal
HOP-92 NSCLC = tested on: HOP-92 NSCLC
OVCAR-3 ovarian = tested on: OVCAR-3 ovarian
SN12C renal = tested on: SN12C renal
SW-620 colon = tested on: SW-620 colon
OVCAR-5 ovarian = tested on: OVCAR-5 ovarian
OVCAR-4 ovarian = tested on: OVCAR-4 ovarian

SMILES | TGI (MOLT-4 leukemia) [µM] | TGI (MCF7 breast) [µM] | TGI (BT-549 breast) [µM] | TGI (ACHN renal) [µM] | TGI (HOP-92 NSCLC) [µM] | TGI (OVCAR-3 ovarian) [µM] | TGI (SN12C renal) [µM] | TGI (SW-620 colon) [µM] | TGI (OVCAR-5 ovarian) [µM] | TGI (OVCAR-4 ovarian) [µM] | GI50 (MOLT-4 leukemia) [µM] | GI50 (ACHN renal) [µM] | GI50 (OVCAR-3 ovarian) [µM] | GI50 (SN12C renal) [µM] | GI50 (OVCAR-5 ovarian) [µM] | GI50 (HOP-92 NSCLC) [µM] | GI50 (SW-620 colon) [µM]
Cc1ccc(N=C2C(=Nc3ccc(C)cc3)N(c3ccc(C)cc3)C(=S)N2C(=O)c2ccccc2)cc1 | > 100 | > 100 | > 100 | > 100 | > 100 | > 100 | > 100 | > 100 | > 100 | – | – | – | – | – | – | – | –
CC1=C(C)C(=O)C(C2=CC(=O)C=CC2=O)=C(C2=CC(=O)C=CC2=O)C1=O | 44.8 | > 81.4 | > 100 | > 100 | > 78.9 | – | > 71.8 | > 76.2 | > 100 | 51.3 | – | – | – | – | – | – | –
COc1cc(CS(=O)c2ccc(O)cc2)cc(OC)c1OC (stereo unspecified) | > 100 | > 100 | > 100 | > 100 | > 100 | > 100 | > 100 | > 100 | > 100 | – | – | – | – | – | – | – | –
CC(=O)Nc1ccccc1NC1CC(C)N(c2ccccc2)N1C(C)=O (stereo unspecified) | > 10 | > 10 | – | – | > 10 | – | > 10 | > 10 | – | > 10 | – | – | – | – | – | – | –
COc1ccc2c(c1)OC[C@@H]1c3cc(O)c(OCc4ccccc4)cc3O[C@H]21 | > 100 | – | – | > 100 | 61.7 | > 100 | – | 96.2 | > 100 | 60.3 | – | – | – | – | – | – | –
C[N+](C)(CCNC(=O)c1cccc2cc3ccccc3nc12)Cc1ccc([N+](=O)[O-])s1 | > 25 | > 25 | > 25 | > 25 | > 25 | > 25 | > 25 | > 25 | > 25 | – | – | – | – | – | – | – | –
COc1ccc(C[C@H](N)C(=O)N2C[C@@H](CO)C[C@@H](n3ccc(=O)[nH]c3=O)C2)cc1 | > 100 | – | – | > 100 | > 100 | > 100 | > 100 | > 100 | > 100 | > 100 | – | – | – | – | – | – | –
C=CCn1c(-c2ccc([N+](=O)[O-])cc2)csc1=N | – | > 100 | > 100 | > 100 | > 100 | > 100 | > 100 | > 100 | > 100 | > 100 | – | – | – | – | – | – | –
O=C(N/N=C/c1cc(Br)cc(Br)c1[O-])c1ccccc1O.O=C(N/N=C/c1cc(Br)cc(Br)c1[O-])c1ccccc1O.[Ni+2] | 15.6 | – | – | 1.53 | 2.02 | 0.52 | – | 1.94 | 1.34 | 0.825 | – | – | – | – | – | – | –
COc1ccc(N2C(=O)C3c4[nH]c5ccccc5c4C4CCCCC4C3C2=O)cc1 (stereo unspecified) | 36.9 | – | – | > 100 | 50.3 | > 100 | > 100 | > 100 | > 100 | 23.6 | – | – | – | – | – | – | –
Cc1cc(S(=O)(=O)/N=C(/NN)NNc2cccc(C(F)(F)F)n2)c(S)cc1Cl | 45.7 | – | 36.7 | 50.1 | 23.8 | 62.7 | > 100 | 39.3 | 29.5 | 36 | – | – | – | – | – | – | –
Cc1nc2ccccc2c(/C=C/c2ccc(Cl)cc2)c1C(=O)/C=C/c1ccccc1 | 4.88 | – | – | 2.86 | – | 2.77 | 3.36 | – | 3.39 | – | 0.884 | 1.53 | 1.36 | 1.67 | 1.83 | – | –
CCOC(=O)c1c(-c2cccc3ccccc23)c(C#N)c(=S)n(C2OC(COC(C)=O)C(OC(C)=O)C(OC(C)=O)C2OC(C)=O)c1C (stereo unspecified) | > 100 | > 100 | – | > 100 | > 100 | > 100 | > 100 | – | > 100 | > 100 | – | – | – | – | – | – | –
CCOC(=O)C(NC(=O)OC(C)(C)C)C(=O)OCC | > 100 | > 100 | > 100 | > 100 | > 100 | – | > 100 | > 100 | > 100 | > 100 | – | – | – | – | – | – | –
Cc1ccc(CCC(=O)C(=O)O)s1 | > 100 | – | – | > 100 | > 100 | > 100 | > 100 | > 100 | > 100 | > 100 | – | – | – | – | – | – | –
NCCCNCCCCN1CC1 | – | > 100 | > 20.5 | – | 4.91 | 4.78 | – | – | > 33.8 | 1.53 | – | – | – | – | – | – | –
Fc1cc(-c2cc(-c3ccc4c(c3)OCO4)n[nH]2)c(Cl)cc1Cl | > 50.7 | – | 20.7 | 3.86 | 6.21 | 5.33 | 7.58 | 28.9 | 13.7 | 4.49 | – | – | – | – | – | – | –
COc1ccc2nc3cc(Cl)ccc3c(NCCNc3c4ccc(Cl)cc4nc4ccc(OC)cc34)c2c1 | – | – | – | 3.11 | 3.51 | – | – | 2.98 | – | – | – | 1.6 | – | – | – | 2.01 | 1.1
